This note sets out measurements from patent US20220047567A1, “METHODS FOR THE TREATMENT OF NEUROFIBROMATOSIS” (INSERM (INSTITUT NATIONAL DE LA SANTÉ ET DE LA RECHERCHE …, priority 2018, published 2022).

“Also recorded” adds a separate entry of the source.

The test system of test [1] is PIK3CA pathway (phosphorylation of AKT and S6RP) in NF1−/− cells. Nature of the test: Western blot of AKT and S6RP phosphorylation in immortalized NF1−/− cells. The test is classed as cell-based. The following applies: after 12 h of exposure. The text has this:
(§1) FIG. 1: NF1+/+ and NF1−/− cells were exposed to either DMSO, BYL719 at different concentrations […], selumetinib at different concentrations (1 and 10 mmol·L−1) or a combination of BYL719 1 mmol·L−1 and selumetinib 10 mmol·L−1 or BYL719 1 mmol·L−1 and selumetinib 10 mmol·L−1 and IPA3. […] The addition of BYL719 to either selumetinib or selumetinib and IPA3 increases cells apoptosis. All data are shown as the means±s.e.m. ANOVA followed by Tukey-Kramer test. White column: NF1+/+, black column: NF1−/−.
(§2) Inventors first checked in immortalized NF1−/− cells if the PIK3CA pathway was recruited (FIGS. 1A, 1B and 1C). […] They then treated the cells with BYL719. […] They then exposed the NF1−/− cells to different dose of selumetinib, a MAP kinase inhibitor, drug that gave encouraging results in some patients with neurofibromatosis.

Another test concerns NF1−/− cells. The test is described as follows: Apoptosis assessed by PARP cleavage in NF1−/− cells. Format: cell-based. The following applies: different doses, FIG. 1C.
Excerpt: as §1, §2

On to `Cc1nc(NC(=O)N2CCC[C@H]2C(N)=O)sc1-c1ccnc(C(C)(C)C(F)(F)F)c1` [BYL719], for which the “phosphorylation of AKT” value in test [1] (FIG. 1A) is reported as “efficiently blocks; also recorded: efficiently blocking”. The “phosphorylation of S6RP” value in test [1] (FIG. 1B) was “efficiently blocks; also recorded: efficiently blocking”. Further, the “apoptosis as assessed by PARP cleavage” value in the test on NF1−/− cells was “induces apoptosis; also recorded: increased apoptosis as assessed by PARP cleavage in a dose dependent manner”.
